From US20180280528A1, “ANTIFOLATE CONJUGATES FOR TREATING INFLAMMATION” (ENDOCYTE, INC., priority 2015, published 2018)

What was measured:
[1] = molecular target: T1, human folate receptor (FR)-α (Homo sapiens, UniProt P15328); assay: Relative affinity assay (displacement of 3H-folic acid on KB cells); assay type: binding; details: 100 nM 3H-folic acid, 1 h at 37° C., normalized against 1 for FA
T1 construct: endogenous in cells; host or cells: KB cells (human HeLa carcinoma contaminant)
Description: Cell lines utilized to evaluate EC2319 in in-vitro studies were as follows: KB human HeLa carcinoma contaminant expressing the human folate receptor (FR)-α, RAW264.7 mouse macrophage-derived tumor cells expressing a murine FR, THP-1-FRβ human monocytic leukemia engineered to express the human FR-β. All cells were grown in a folate-free RPMI1640 medium (Gibco BRL) (FFRPMI) containing 10% heat-inactivated fetal calf serum (HIFCS) and antibiotics, and maintained under a 5% CO2 atmosphere using standard cell culture techniques.
EC2319 FR-binding affinity was determined in a relative affinity assay using KB cells as the source of FR. Briefly, KB cells (1×10^5 cells/well) were plated in 24-well plates at 18 to 24 h before use. The cells were then incubated for 1 h at 37° C. with 100 nM of ^3H-folic acid (Moravek Inc.) plus a series of 3.16-fold dilutions of EC2319 or FA at 0.01-31.6 μM in triplicates. At the end of incubation, the cells were washed 3 times with a phosphate-buffered saline (PBS, pH 7.4) and lysed for 5 min at room temperature in 0.5 mL of 0.25 N NaOH. 0.45 mL of the cell lysate was taken from each well and counted in a scintillation counter. […] See result in FIG. 1.

human THP-1-FRβ cells = assay: Cell viability (XTT) assay, THP-1-FRβ; assay type: cell-based
Description: (§1) All cells were grown in a folate-free RPMI1640 medium (Gibco BRL) (FFRPMI) containing 10% heat-inactivated fetal calf serum (HIFCS) and antibiotics, and maintained under a 5% CO2 atmosphere using standard cell culture techniques.
(§2) After a 2 h exposure, the drug-containing media were replaced and the cells were allowed to incubate further for 72 h. The cell viability was assessed by adding XTT (2,3-bis(2-methoxy-4-nitro-5-sulfo-phenyl)-2H-tetrazolium-5-carboxanilide) to the culture medium for 3 h following the manufacturer's instructions. All results were expressed as % absorbance (minus background) relative to the untreated control cells. See results in FIG. 2A and FIG. 2B.
(§3) Importantly, the observed anti-proliferative effect was 100% competable in the presence of excess FA, indicating a FR-specific mode of action.

[2] = system: mouse RAW264.7 macrophage cells; assay: Cell viability (XTT) assay, RAW264.7; assay type: cell-based
Description: as §1, §2, §3

[3] = 2 h exposure, 72 h chase, XTT, read-out: relative IC50, inhibition of cell proliferation

T1 sequence (P15328 25-234): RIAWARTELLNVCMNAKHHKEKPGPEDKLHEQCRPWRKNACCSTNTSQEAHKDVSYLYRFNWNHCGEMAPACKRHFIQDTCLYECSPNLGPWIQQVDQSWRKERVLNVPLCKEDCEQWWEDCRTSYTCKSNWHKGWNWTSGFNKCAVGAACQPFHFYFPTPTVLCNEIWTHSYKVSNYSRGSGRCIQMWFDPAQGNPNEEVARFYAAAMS

COC(=O)[C@H](CSSC(C)(C)[C@H](NC(=O)[C@H](CCC(=O)NC[C@H](O)[C@@H](O)[C@H](O)[C@H](O)CO)NC(=O)[C@H](CCC(=O)O)NC(=O)[C@H](CCC(=O)NC[C@H](O)[C@@H](O)[C@H](O)[C@H](O)CO)NC(=O)[C@H](CCC(=O)O)NC(=O)[C@H](CCC(=O)NC[C@H](O)[C@@H](O)[C@H](O)[C@H](O)CO)NC(=O)CC[C@H](NC(=O)c1ccc(NCc2cnc3nc(N)[nH]c(=O)c3n2)cc1)C(=O)O)C(=O)O)NC(=O)CC[C@H](NC(=O)c1ccc(NCc2cnc3nc(N)nc(N)c3n2)cc1)C(=O)O [EC2319]
relative affinity [1]: 0.493 | concentrations with cytostatic effect (human THP-1-FRβ cells): ≥ 100 nM | anti-proliferative effect competable in the presence of excess FA (human THP-1-FRβ cells; 100-fold excess FA): 100% | IC50 (human THP-1-FRβ cells; [3]): ~8.7 nM | concentrations with cytostatic effect [2]: ≥ 10 nM | anti-proliferative effect competable in the presence of excess FA ([2]; 100-fold excess FA): 100% | IC50 [2, 3]: ~2.9 nM
